Read-outs that look alike come from different tables or passages of the source.
Legend:
[1] = Stability of cannabinoid and Vitamin E components of Beverage 2 (AB Red) stored at 8° C. and 21-25° C., LCMSMS over 570 days
Method: The LCMSMS was calibrated for 0-50 ng/ml cannabinoids with the same resin material used in the preparation of the concentrates. At each time period, 100 μml of beverage was diluted with 10 ml of methanol and injected into the LCMSMS for analysis.

[2] = type: physicochemical; settings: stored at room temperature (21-25° C.)
Method: At each time period, 0.05 g of powder was dissolved in 10 ml-15 of ethanol, diluted to fall within the analytical range, and injected into the LCMSMS for analysis.

SMILES: C=C(C)[C@@H]1CCC(C)=C[C@H]1c1c(O)cc(CCCCC)c(C(=O)O)c1O [CBDA, cannabidiolic acid]
- Stability of Cannabinoids in AB Red ([1]; 8° C., 0 days): 1.68 µg/mL
- Stability of Cannabinoids in AB Red ([1]; 8° C., 1 days): 1.69 µg/mL
- Stability of Cannabinoids in AB Red ([1]; 8° C., 2 days): 1.66 µg/mL
- Stability of Cannabinoids in AB Red ([1]; 8° C., 3 days): 1.64 µg/mL
- Stability of Cannabinoids in AB Red ([1]; 8° C., 5 days): 1.67 µg/mL
- Stability of Cannabinoids in AB Red ([1]; 8° C., 8 days): 1.68 µg/mL
- Stability of Cannabinoids in AB Red ([1]; 8° C., 9 days): 1.65 µg/mL
- Stability of Cannabinoids in AB Red ([1]; 8° C., 10 days): 1.67 µg/mL
- Stability of Cannabinoids in AB Red ([1]; 8° C., 11 days): 1.65 µg/mL
- Stability of Cannabinoids in AB Red ([1]; 8° C., 12 days): 1.68 µg/mL
- Stability of Cannabinoids in AB Red ([1]; 8° C., 15 days): 1.67 µg/mL
- Stability of Cannabinoids in AB Red ([1]; 8° C., 16 days): 1.69 µg/mL
- Stability of Cannabinoids in AB Red ([1]; 8° C., 17 days): 1.64 µg/mL
- Stability of Cannabinoids in AB Red ([1]; 8° C., 18 days): 1.65 µg/mL
- Stability of Cannabinoids in AB Red ([1]; 8° C., 19 days): 1.68 µg/mL
- Stability of Cannabinoids in AB Red ([1]; 8° C., 22 days): 1.70 µg/mL
- Stability of Cannabinoids in AB Red ([1]; 8° C., 23 days): 1.63 µg/mL
- Stability of Cannabinoids in AB Red ([1]; 8° C., 24 days): 1.70 µg/mL
- Stability of Cannabinoids in AB Red ([1]; 8° C., 25 days): 1.63 µg/mL
- Stability of Cannabinoids in AB Red ([1]; 8° C., 26 days): 1.63 µg/mL
- Stability of Cannabinoids in AB Red ([1]; 8° C., 29 days): 1.66 µg/mL
- Stability of Cannabinoids in AB Red ([1]; 8° C., 30 days): 1.70 µg/mL
- Stability of Cannabinoids in AB Red ([1]; 8° C., 60 days): 1.66 µg/mL
- Stability of Cannabinoids in AB Red ([1]; 8° C., 90 days): 1.68 µg/mL
- Stability of Cannabinoids in AB Red ([1]; 8° C., 120 days): 1.65 µg/mL
- Stability of Cannabinoids in AB Red ([1]; 8° C., 150 days): 1.66 µg/mL
- Stability of Cannabinoids in AB Red ([1]; 8° C., 180 days): 1.60 µg/mL
- Stability of Cannabinoids in AB Red ([1]; 8° C., 210 days): 1.65 µg/mL
- Stability of Cannabinoids in AB Red ([1]; 8° C., 240 days): 1.66 µg/mL
- Stability of Cannabinoids in AB Red ([1]; 8° C., 270 days): 1.63 µg/mL
- Stability of Cannabinoids in AB Red ([1]; 8° C., 300 days): 1.65 µg/mL
- Stability of Cannabinoids in AB Red ([1]; 8° C., 330 days): 1.60 µg/mL
- Stability of Cannabinoids in AB Red ([1]; 8° C., 390 days): 1.63 µg/mL
- Stability of Cannabinoids in AB Red ([1]; 8° C., 420 days): 1.63 µg/mL
- Stability of Cannabinoids in AB Red ([1]; 8° C., 450 days): 1.63 µg/mL
- Stability of Cannabinoids in AB Red ([1]; 8° C., 480 days): 1.60 µg/mL
- Stability of Cannabinoids in AB Red ([1]; 8° C., 510 days): 1.55 µg/mL
- Stability of Cannabinoids in AB Red ([1]; 8° C., 540 days): 1.55 µg/mL
- Stability of Cannabinoids in AB Red ([1]; 8° C., 570 days): 1.54 µg/mL
- Stability of Cannabinoids in AB Red ([1]; 21-25° C., 0 days): 1.68 µg/mL
- Stability of Cannabinoids in AB Red ([1]; 21-25° C., 1 days): 1.70 µg/mL
- Stability of Cannabinoids in AB Red ([1]; 21-25° C., 2 days): 1.65 µg/mL
- Stability of Cannabinoids in AB Red ([1]; 21-25° C., 3 days): 1.64 µg/mL
- Stability of Cannabinoids in AB Red ([1]; 21-25° C., 5 days): 1.69 µg/mL
- Stability of Cannabinoids in AB Red ([1]; 21-25° C., 8 days): 1.64 µg/mL
- Stability of Cannabinoids in AB Red ([1]; 21-25° C., 9 days): 1.63 µg/mL
- Stability of Cannabinoids in AB Red ([1]; 21-25° C., 10 days): 1.61 µg/mL
- Stability of Cannabinoids in AB Red ([1]; 21-25° C., 11 days): 1.64 µg/mL
- Stability of Cannabinoids in AB Red ([1]; 21-25° C., 12 days): 1.70 µg/mL
- Stability of Cannabinoids in AB Red ([1]; 21-25° C., 15 days): 1.64 µg/mL
- Stability of Cannabinoids in AB Red ([1]; 21-25° C., 16 days): 1.67 µg/mL
- Stability of Cannabinoids in AB Red ([1]; 21-25° C., 17 days): 1.63 µg/mL
- Stability of Cannabinoids in AB Red ([1]; 21-25° C., 18 days): 1.65 µg/mL
- Stability of Cannabinoids in AB Red ([1]; 21-25° C., 19 days): 1.70 µg/mL
- Stability of Cannabinoids in AB Red ([1]; 21-25° C., 22 days): 1.66 µg/mL
- Stability of Cannabinoids in AB Red ([1]; 21-25° C., 23 days): 1.63 µg/mL
- Stability of Cannabinoids in AB Red ([1]; 21-25° C., 24 days): 1.65 µg/mL
- Stability of Cannabinoids in AB Red ([1]; 21-25° C., 25 days): 1.64 µg/mL
- Stability of Cannabinoids in AB Red ([1]; 21-25° C., 26 days): 1.67 µg/mL
- Stability of Cannabinoids in AB Red ([1]; 21-25° C., 29 days): 1.62 µg/mL
- Stability of Cannabinoids in AB Red ([1]; 21-25° C., 30 days): 1.68 µg/mL
- Stability of Cannabinoids in AB Red ([1]; 21-25° C., 60 days): 1.59 µg/mL
- Stability of Cannabinoids in AB Red ([1]; 21-25° C., 90 days): 1.60 µg/mL
- Stability of Cannabinoids in AB Red ([1]; 21-25° C., 120 days): 1.64 µg/mL
- Stability of Cannabinoids in AB Red ([1]; 21-25° C., 150 days): 1.58 µg/mL
- Stability of Cannabinoids in AB Red ([1]; 21-25° C., 180 days): 1.64 µg/mL
- Stability of Cannabinoids in AB Red ([1]; 21-25° C., 210 days): 1.64 µg/mL
- Stability of Cannabinoids in AB Red ([1]; 21-25° C., 240 days): 1.60 µg/mL
- Stability of Cannabinoids in AB Red ([1]; 21-25° C., 270 days): 1.65 µg/mL
- Stability of Cannabinoids in AB Red ([1]; 21-25° C., 300 days): 1.58 µg/mL
- Stability of Cannabinoids in AB Red ([1]; 21-25° C., 330 days): 1.65 µg/mL
- Stability of Cannabinoids in AB Red ([1]; 21-25° C., 390 days): 1.61 µg/mL
- Stability of Cannabinoids in AB Red ([1]; 21-25° C., 420 days): 1.59 µg/mL
- Stability of Cannabinoids in AB Red ([1]; 21-25° C., 450 days): 1.57 µg/mL
- Stability of Cannabinoids in AB Red ([1]; 21-25° C., 480 days): 1.57 µg/mL
- Stability of Cannabinoids in AB Red ([1]; 21-25° C., 510 days): 1.56 µg/mL
- Stability of Cannabinoids in AB Red ([1]; 21-25° C., 540 days): 1.57 µg/mL
- Stability of Cannabinoids in AB Red ([1]; 21-25° C., 570 days): 1.54 µg/mL
- Stability in Powder Concentrate (content by LCMSMS) ([2]; day 0): 0.410 mg/g powder
- Stability in Powder Concentrate (content by LCMSMS) ([2]; day 1): 0.412 mg/g powder
- Stability in Powder Concentrate (content by LCMSMS) ([2]; day 2): 0.407 mg/g powder
- Stability in Powder Concentrate (content by LCMSMS) ([2]; day 3): 0.406 mg/g powder
- Stability in Powder Concentrate (content by LCMSMS) ([2]; day 5): 0.414 mg/g powder
- Stability in Powder Concentrate (content by LCMSMS) ([2]; day 8): 0.415 mg/g powder
- Stability in Powder Concentrate (content by LCMSMS) ([2]; day 9): 0.410 mg/g powder
- Stability in Powder Concentrate (content by LCMSMS) ([2]; day 10): 0.418 mg/g powder
- Stability in Powder Concentrate (content by LCMSMS) ([2]; day 11): 0.415 mg/g powder
- Stability in Powder Concentrate (content by LCMSMS) ([2]; day 12): 0.396 mg/g powder
- Stability in Powder Concentrate (content by LCMSMS) ([2]; day 15): 0.399 mg/g powder
- Stability in Powder Concentrate (content by LCMSMS) ([2]; day 16): 0.427 mg/g powder
- Stability in Powder Concentrate (content by LCMSMS) ([2]; day 17): 0.421 mg/g powder
- Stability in Powder Concentrate (content by LCMSMS) ([2]; day 18): 0.418 mg/g powder
- Stability in Powder Concentrate (content by LCMSMS) ([2]; day 19): 0.414 mg/g powder
- Stability in Powder Concentrate (content by LCMSMS) ([2]; day 22): 0.419 mg/g powder
- Stability in Powder Concentrate (content by LCMSMS) ([2]; day 23): 0.396 mg/g powder
- Stability in Powder Concentrate (content by LCMSMS) ([2]; day 24): 0.403 mg/g powder
- Stability in Powder Concentrate (content by LCMSMS) ([2]; day 25): 0.401 mg/g powder
- Stability in Powder Concentrate (content by LCMSMS) ([2]; day 26): 0.397 mg/g powder
- Stability in Powder Concentrate (content by LCMSMS) ([2]; day 29): 0.426 mg/g powder
- Stability in Powder Concentrate (content by LCMSMS) ([2]; day 30): 0.405 mg/g powder
- Stability in Powder Concentrate (content by LCMSMS) ([2]; day 60): 0.418 mg/g powder
- Stability in Powder Concentrate (content by LCMSMS) ([2]; day 90): 0.413 mg/g powder
- Stability in Powder Concentrate (content by LCMSMS) ([2]; day 120): 0.403 mg/g powder
- Stability in Powder Concentrate (content by LCMSMS) ([2]; day 150): 0.412 mg/g powder
- Stability in Powder Concentrate (content by LCMSMS) ([2]; day 180): 0.422 mg/g powder
- Stability in Powder Concentrate (content by LCMSMS) ([2]; day 210): 0.427 mg/g powder
- Stability in Powder Concentrate (content by LCMSMS) ([2]; day 240): 0.417 mg/g powder
- Stability in Powder Concentrate (content by LCMSMS) ([2]; day 270): 0.424 mg/g powder
- Stability in Powder Concentrate (content by LCMSMS) ([2]; day 300): 0.409 mg/g powder
- Stability in Powder Concentrate (content by LCMSMS) ([2]; day 330): 0.424 mg/g powder
- Stability in Powder Concentrate (content by LCMSMS) ([2]; day 360): 0.413 mg/g powder
- Stability in Powder Concentrate (content by LCMSMS) ([2]; day 390): 0.407 mg/g powder
- Stability in Powder Concentrate (content by LCMSMS) ([2]; day 420): 0.420 mg/g powder
- Stability in Powder Concentrate (content by LCMSMS) ([2]; day 450): 0.398 mg/g powder
- Stability in Powder Concentrate (content by LCMSMS) ([2]; day 480): 0.418 mg/g powder
- Stability in Powder Concentrate (content by LCMSMS) ([2]; day 510): 0.411 mg/g powder
- Stability in Powder Concentrate (content by LCMSMS) ([2]; day 540): 0.425 mg/g powder
- Stability in Powder Concentrate (content by LCMSMS) ([2]; day 570): 0.408 mg/g powder
